# Laboratory results published in patent US20120115149A1, “SEROTONIN TRANSPORTER GENE AND TREATMENT OF ALCOHOLISM” (University of Virginia Patent Foundation, priority 2009, published 2012).
# Where a name gives a salt, the structure may show the parent alone.
# Key:
# [1] = alcohol trials, naltrexone 50 mg/day; cited from earlier work
# alcoholics = experiment: Double-blind placebo-controlled trial of ondansetron in alcoholics randomized by 5'-HTTLPR genotype: self-reported drinking; format: in vivo, human
# Excerpt: We randomized 283 alcoholics by genotype in the 5′-regulatory region of the 5-HTT gene (LL/LS/SS) in a controlled double-blind trial. […] We genotyped another functional single nucleotide polymorphism (T/G), rs1042173, in the 3′-untranslated region.
# Participants. Details of the subject population were similar to those in a previously published study (22). Briefly, our 283 enrollees (73.7% male; 84.4% White, and 15.6% Hispanic) had alcohol dependence but no axis I diagnosis other than nicotine dependence according to the Diagnostic and Statistical Manual of Mental Disorders, 4th edition (23); were aged 20 to 78 years, and scored >8 on the Alcohol Use Disorders Identification Test (24), which assessed the severity of alcohol-related problems.
# All subjects provided informed consent to participate.
# Subjects were randomized using an urn (25) procedure after the screening visit to either treatment or placebo under each of three different genotypes (LL, LS, or SS alleles of the 5′-HTTLPR) strata. Further characterization of the cohort for rs1042173 of 3′-UTR alleles (i.e., TT/TG/GG) was done post-randomization.
# Study procedures. Subjects were enrolled in the study whilst they were still drinking (i.e., without a period of abstinence). At enrollment, we collected self-reported drinking based on the timeline follow-back method over the past 90 days (26), genotyped, and collected white blood cells (WBCs) for expression studies.
# From weeks 1 to 12, subjects received weekly assessment of drinking using the timeline follow-back method, adverse events using the Systematic Assessment for Treatment Emergent Events (28), alcohol withdrawal using the revised Clinical Institute Withdrawal Assessment for Alcohol scale (17), concomitant medication use, and pill count.
# All subjects received weekly standardized, manual-driven (29, 30) cognitive behavioral therapy in groups of up to eight subjects as their psychosocial treatment. This comprised an integration of cognitive behavioral and social learning theory that enables alcoholic subjects to achieve and maintain abstinence by enhancing their ability to manage high-risk situations, which can trigger alcohol-seeking behavior (31, 32).
# Genetics testing. DNA was extracted from the blood of each subject at baseline with a Gentra Puregene® kit (QIAGEN Inc., Valencia, Calif.). The 5′-HTTLPR L/S alleles were determined as described earlier (2, 33) with custom-made primers. The alleles of SNP rs1042173 were genotyped with pre-made TaqMan® genotyping assays (Applied Biosystems, Foster City, Calif.) as reported previously (10).
# [2] = cited from earlier work; for effect on binge eating, in words: human, in vivo
# [3] = cited from earlier work
# [4] = LL genotype, ondansetron (4 μg/kg twice daily, 11 weeks) vs. placebo, averaged across treatment
# [5] = ondansetron LL vs. all other genotype and treatment groups combined
# [6] = ondansetron LL/TT vs. all other genotype and treatment groups combined
# [7] = within ondansetron recipients, LL vs. LS/SS
structure (smiles),measurement,setting,value
"O=C1CC[C@@]2(O)[C@H]3Cc4ccc(O)c5c4[C@@]2(CCN3CC2CC2)[C@H]1O5 [naltrexone, 17-(Cyclopropylmethyl)-4,5a-epoxy-3,14-dihydroxymorphinan-6-one hydrochloride]",individuals unable to tolerate the dose,[1],about 15%
"Cc1nccn1CC1CCc2c(c3ccccc3n2C)C1=O (stereo not drawn) [ondansetron, 9-methyl-3-[(2-methyl-1H-imidazol-1-yl)methyl]-1,2,3,9-tetrahydrocarbazol-4-one]","drinks/drinking day (DDD), difference",alcoholics; [4],−1.62
same,"percentage of days abstinent (PDA), difference",alcoholics; [4],11.27%
same,"response by age of onset, in words",alcoholics; LL or LL/TT genotype,responded to ondansetron irrespective of age of onset
same,"effect on drinks/drinking day, in words","alcoholics; LL subjects, TT subjects",reduces drinks/drinking day
same,"response to treatment by rs1042173 genotype, in words","alcoholics; alcohol-dependent subjects, TT vs. TG/GG genotype",respond better
same,"reduction in severity of drinking by 5'-HTTLPR genotype, in words",alcoholics; alcoholics with LL genotype vs. LS/SS,significantly greater reduction in the severity of drinking
same,"drinks/drinking day (DDD), difference",alcoholics; [5],−1.45
same,"percentage of days abstinent (PDA), difference",alcoholics; [5],9.65%
same,"drinks/drinking day (DDD), difference",alcoholics; [6],−2.63
same,"percentage of days abstinent (PDA), difference",alcoholics; [6],16.99%
same,"drinks/drinking day (DDD), difference",alcoholics; [7],−1.53
same,"percentage of days abstinent (PDA), difference",alcoholics; [7],9.73%
same,"effect on binge eating, in words",[2],reduce binge eating
O=C1NC(=O)C(c2ccccc2)(c2ccccc2)N1 [phenyloin],"effect on binge eating, in words",[2],reduced binge eating
"CC1(C)O[C@@H]2[C@@H](CO[C@@]3(COS(N)(=O)=O)OC(C)(C)O[C@@H]23)O1 [topiramate, 2,3:4,5-Bis-O-(1-methylethylidene)-beta-D-fructopyranose sulfamate]","effect on appetite and weight, in words",[2]; controlled trials in patients with epilepsy,suppression of appetite and weight loss
same,"cognitive impairment, individuals reporting",[3]; general population,2.4%
same,occurrence rate of cognitive impairment,[3]; substance abuse field,about 18.7%
